Results as given in the supplement of paper PMC10307832.

How the values were obtained:
Experiment in all cases: relative viability (nuclei count vs DMSO), 5 days (fraction); higher = more cells survive
SK-LU-1 = tested on: SK-LU-1
Outline: (§1)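 Lung cancer cell lines, seeded in 1536-well plates, were treated the following day by pin tool with a single drug or with five library-drug doses (not always all listed) in √10 steps on top of a fixed anchor-drug dose. Cells were fixed and nuclei stained in one step after 5 days, and nuclei were counted. Relative viability is the nuclei count for treated wells divided by that for vehicle wells, reported as medians of duplicate plates.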

PC-3 [JPC-3] = tested on: PC-3 [JPC-3]
Outline: as §1

NCI-H1793 = tested on: NCI-H1793
Outline: as §1

SW 1573 = tested on: SW 1573
Outline: as §1

A-427 = tested on: A-427
Outline: as §1

LU99A = tested on: LU99A
Outline: as §1

NCI-H1792 = tested on: NCI-H1792
Outline: as §1

LXF-289 = tested on: LXF-289
Outline: as §1

COR-L23 = tested on: COR-L23
Outline: as §1

NCI-H2170 = tested on: NCI-H2170
Outline: as §1

NCI-H1944 = tested on: NCI-H1944
Outline: as §1

EMC-BAC-2 = tested on: EMC-BAC-2
Outline: as §1

SW 900 = tested on: SW 900
Outline: as §1

NCI-H2009 = tested on: NCI-H2009
Outline: as §1

NCI-H596 = tested on: NCI-H596
Outline: as §1

NCI-H2228 = tested on: NCI-H2228
Outline: as §1

LK-2 = tested on: LK-2
Outline: as §1

NCI-H3122 = tested on: NCI-H3122
Outline: as §1

HOP-62 = tested on: HOP-62
Outline: as §1

SK-MES-1 = tested on: SK-MES-1
Outline: as §1

HARA = tested on: HARA
Outline: as §1

NCI-H1993 = tested on: NCI-H1993
Outline: as §1

## C[C@@H]1CN(CC(=O)Nc2ccc3c(c2)Cc2cccc(-c4cc(=O)cc(N5CCOCC5)o4)c2S3)C[C@H](C)O1 + Nc1nc2[nH]cc(CCc3ccc(C(=O)N[C@@H](CCC(=O)O)C(=O)O)cc3)c2c(=O)[nH]1 [Pemetrexed] (partner 0.2 µM)
SK-LU-1; first compound 0.04 µM
  relative viability: 1.08
SK-LU-1; first compound 0.1265 µM
  relative viability: 0.933
SK-LU-1; first compound 0.4 µM
  relative viability: 1.01
SK-LU-1; first compound 4 µM
  relative viability: 0.756
PC-3 [JPC-3]; first compound 0.04 µM
  relative viability: 1.04
PC-3 [JPC-3]; first compound 0.1265 µM
  relative viability: 1.09
PC-3 [JPC-3]; first compound 0.4 µM
  relative viability: 1.21
PC-3 [JPC-3]; first compound 4 µM
  relative viability: 0.943
NCI-H1793; first compound 0.04 µM
  relative viability: 0.98
NCI-H1793; first compound 0.1265 µM
  relative viability: 0.752
NCI-H1793; first compound 0.4 µM
  relative viability: 0.855
NCI-H1793; first compound 4 µM
  relative viability: 0.485
SW 1573; first compound 0.04 µM
  relative viability: 0.935
SW 1573; first compound 0.1265 µM
  relative viability: 0.855
SW 1573; first compound 0.4 µM
  relative viability: 0.903
SW 1573; first compound 4 µM
  relative viability: 0.822
A-427; first compound 0.04 µM
  relative viability: 1.05
A-427; first compound 0.1265 µM
  relative viability: 1.04
A-427; first compound 0.4 µM
  relative viability: 1.02
A-427; first compound 4 µM
  relative viability: 0.921
LU99A; first compound 0.04 µM
  relative viability: 0.184
LU99A; first compound 0.1265 µM
  relative viability: 0.15
LU99A; first compound 0.4 µM
  relative viability: 0.21
LU99A; first compound 4 µM
  relative viability: 0.222
NCI-H1792; first compound 0.04 µM
  relative viability: 0.72
NCI-H1792; first compound 0.1265 µM
  relative viability: 0.766
NCI-H1792; first compound 0.4 µM
  relative viability: 0.719
NCI-H1792; first compound 4 µM
  relative viability: 0.591
LXF-289; first compound 0.04 µM
  relative viability: 0.884
LXF-289; first compound 0.1265 µM
  relative viability: 0.99
LXF-289; first compound 0.4 µM
  relative viability: 0.89
LXF-289; first compound 4 µM
  relative viability: 0.818
COR-L23; first compound 0.04 µM
  relative viability: 0.189
COR-L23; first compound 0.1265 µM
  relative viability: 0.204
COR-L23; first compound 0.4 µM
  relative viability: 0.203
COR-L23; first compound 4 µM
  relative viability: 0.206
NCI-H2170; first compound 0.04 µM
  relative viability: 0.266
NCI-H2170; first compound 0.1265 µM
  relative viability: 0.286
NCI-H2170; first compound 0.4 µM
  relative viability: 0.259
NCI-H2170; first compound 4 µM
  relative viability: 0.26
NCI-H1944; first compound 0.1265 µM
  relative viability: 0.819
NCI-H1944; first compound 0.4 µM
  relative viability: 0.642
NCI-H1944; first compound 4 µM
  relative viability: 0.616
EMC-BAC-2; first compound 0.04 µM
  relative viability: 0.417
EMC-BAC-2; first compound 0.1265 µM
  relative viability: 0.439
EMC-BAC-2; first compound 0.4 µM
  relative viability: 0.458
EMC-BAC-2; first compound 4 µM
  relative viability: 0.459
SW 900; first compound 0.04 µM
  relative viability: 0.469
SW 900; first compound 0.1265 µM
  relative viability: 0.471
SW 900; first compound 0.4 µM
  relative viability: 0.44
SW 900; first compound 4 µM
  relative viability: 0.453
NCI-H2009; first compound 0.04 µM
  relative viability: 1.06
NCI-H2009; first compound 0.1265 µM
  relative viability: 0.968
NCI-H2009; first compound 0.4 µM
  relative viability: 1.05
NCI-H2009; first compound 4 µM
  relative viability: 0.849
NCI-H596; first compound 0.04 µM
  relative viability: 0.548
NCI-H596; first compound 0.1265 µM
  relative viability: 0.535
NCI-H596; first compound 0.4 µM
  relative viability: 0.429
NCI-H596; first compound 4 µM
  relative viability: 0.481
NCI-H2228; first compound 0.04 µM
  relative viability: 0.333
NCI-H2228; first compound 0.1265 µM
  relative viability: 0.351
NCI-H2228; first compound 0.4 µM
  relative viability: 0.34
NCI-H2228; first compound 4 µM
  relative viability: 0.226
LK-2; first compound 0.04 µM
  relative viability: 0.218
LK-2; first compound 0.1265 µM
  relative viability: 0.288
LK-2; first compound 0.4 µM
  relative viability: 0.237
LK-2; first compound 4 µM
  relative viability: 0.217
NCI-H3122; first compound 0.04 µM
  relative viability: 0.192
NCI-H3122; first compound 0.1265 µM
  relative viability: 0.193
NCI-H3122; first compound 0.4 µM
  relative viability: 0.192
NCI-H3122; first compound 4 µM
  relative viability: 0.183
HOP-62; first compound 0.04 µM
  relative viability: 0.318
HOP-62; first compound 0.1265 µM
  relative viability: 0.33
HOP-62; first compound 0.4 µM
  relative viability: 0.317
HOP-62; first compound 4 µM
  relative viability: 0.455
SK-MES-1; first compound 0.04 µM
  relative viability: 1.01
SK-MES-1; first compound 0.1265 µM
  relative viability: 0.9
SK-MES-1; first compound 0.4 µM
  relative viability: 0.808
SK-MES-1; first compound 4 µM
  relative viability: 0.808
HARA; first compound 0.04 µM
  relative viability: 0.287
HARA; first compound 0.1265 µM
  relative viability: 0.24
HARA; first compound 0.4 µM
  relative viability: 0.192
HARA; first compound 4 µM
  relative viability: 0.214
NCI-H1993; first compound 0.04 µM
  relative viability: 0.63
NCI-H1993; first compound 0.1265 µM
  relative viability: 0.587
NCI-H1993; first compound 0.4 µM
  relative viability: 0.542
NCI-H1993; first compound 4 µM
  relative viability: 0.578
